One series has as its target T1, isolated rat aorta rings (Rattus norvegicus, UniProt P26684).
T1 construct: Rings with a length of 5 mm were cut out from the thorax aorta of adult Wistar-Kyoto rats; from tissue; host or cells: thoracic aorta of adult Wistar-Kyoto rats, endothelium removed
T1 sequence (P26684 21-426): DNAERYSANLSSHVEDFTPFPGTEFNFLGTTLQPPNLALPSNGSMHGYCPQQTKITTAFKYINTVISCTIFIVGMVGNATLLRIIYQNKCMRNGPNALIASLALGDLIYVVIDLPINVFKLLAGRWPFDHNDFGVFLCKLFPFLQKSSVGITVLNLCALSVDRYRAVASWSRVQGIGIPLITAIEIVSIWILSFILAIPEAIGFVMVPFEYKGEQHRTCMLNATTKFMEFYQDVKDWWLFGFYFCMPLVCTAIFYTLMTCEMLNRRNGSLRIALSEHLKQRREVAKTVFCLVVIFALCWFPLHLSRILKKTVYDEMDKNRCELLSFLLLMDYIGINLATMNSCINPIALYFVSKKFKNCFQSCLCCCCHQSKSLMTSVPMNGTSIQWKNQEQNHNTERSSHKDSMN
Kind of series: Inhibition of endothelin-induced contractions in isolated rat aorta rings. Further details: species or system adult Wistar-Kyoto rats. Conditions: rat aorta rings without endothelium, 37° C.; endothelin-1 cumulative; from dose ratio; read-out: pA2 (converted). The method, then: Rings with a length of 5 mm were cut out from the thorax aorta of adult Wistar-Kyoto rats. The endothelium was removed by lightly rubbing the internal surface. Each ring was immersed at 37° C. in 10 ml of Krebs-Henseleit solution in an isolated bath while gassing with 95% O2 and 5% CO2. The isometric stretching of the rings was measured. The rings were stretched to a pre-tension of 3 g.
The corresponding pA2 value, which is a measure of the activity of the test compound, was calculated using a computer programme according to the following equation from the "dose ratio" DR for each individual dosage-activity curve.
pA2 =log(DR-1)-log(antagonist-concentration)

In series [1] the target is T2, recombinant human ETA receptors (Homo sapiens, UniProt P25101).
T2 sequence (P25101 21-427): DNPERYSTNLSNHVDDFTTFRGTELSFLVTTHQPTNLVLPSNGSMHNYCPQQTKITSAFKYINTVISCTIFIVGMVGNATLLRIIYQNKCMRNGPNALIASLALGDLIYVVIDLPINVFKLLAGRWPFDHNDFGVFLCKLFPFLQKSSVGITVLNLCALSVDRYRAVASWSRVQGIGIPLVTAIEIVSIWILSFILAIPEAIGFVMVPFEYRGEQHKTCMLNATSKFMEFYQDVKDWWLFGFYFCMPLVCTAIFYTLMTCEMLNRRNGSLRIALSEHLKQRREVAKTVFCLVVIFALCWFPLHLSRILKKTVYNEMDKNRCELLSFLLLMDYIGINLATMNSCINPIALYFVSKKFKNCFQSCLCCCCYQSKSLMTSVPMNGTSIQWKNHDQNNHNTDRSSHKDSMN
The series can be described thus: Inhibition of endothelin binding on recombinant human ETA receptors expressed in CHO cells ([125I]ET-1, whole attached cells). Conditions: 35 pM [125I]ET-1, 2 h, 22° C. The arrangement: expressed in transfected cells; host or cells: CHO cells. The method, then: II. […] Cell culture. CHO cells, expressing recombinant human ETA receptor are grown in Minimal Essential Alpha Medium (Gibco Laboratories, Paisley, Scotland) supplemented with 0.1 μM methotrexate, 5% dialyzed fetal calf serum, 100 U/ml of penicillin and 100 μg/ml of streptomycin. Binding assays with whole attached cells are performed in 500 μl Dulbecco's Eagle medium (DMEM) containing 2 mg/ml bovine serum albumin and 25 mM Hepes. After incubation (2 h, 22° C.) in the presence of 35 pM [^125 I]ET-1 and increasing concentrations of various antagonists, the cells are extensively washed and finally solubilized in 1% (w/v) SDS, 0.5 M NaOH and 100 mM EDTA. Each assay is performed three times in triplicates and non specific binding is assessed in the presence of 100 nM unlabelled ET-1. Specific binding is defined as the difference between total binding and non specific binding. IC50 values are determined after logit/log transformation of the binding data.

A short description of series [2]: Pharmacokinetics of the endothelin receptor antagonists after oral gavage in rats. Conditions: rat, plasma, 5 mg/kg in DMSO, Wistar rats, bioassay; for AUC: read-out: Area under the plasma concentration time curve; for Cmax: read-out: Peak concentration in rat plasma. The format is in vivo. The method, then:
IV. […] The test compounds were dissolved in DMSO at a concentration of 5 mg/mL and administered orally by gavage at a dose of 1 mL/kg body weight corresponding to 5 mg/kg body weight. Two rats were administered per test compound. Blood samples were collected from the retro-orbital sinus at 1 and 5 h post dose in one rat, and at 3 and 7 h post dose in the other rat. In addition a terminal 24 h blood sample was collected from both rats by heart puncture. Blood was collected on EDTA-NaF. Plasma was derived by centrifugation at 2000 g at +4° C. for 15 min. Plasma samples were assayed for active drug related material with a bioassay, based on the binding competition of tested compounds and ^125 I ET-1 on recombinant ETA receptors. Quantitation of plasma samples was by comparison to a calibration curve build up from control rat plasma spiked with known concentrations of the test compounds.

As to `CCOC(=O)c1cc(-c2nc(NS(=O)(=O)c3ccc(C)cn3)c(Oc3ccccc3OC)c(OC)n2)ccn1` [Example 23, 4-[4-methoxy-5-(2-methoxy-phenoxy)-6-(5-methyl-pyridine-2-sulfonylamino)-pyrimidin-2-yl]-pyridine-2-carboxylic acid ethyl ester], at isolated rat aorta rings, the Kb is at most 6.31 nM. Also, the IC50 in series [1] is at most 10 nM.
As to `COc1ccccc1Oc1c(NS(=O)(=O)c2ccc(C(C)C)cn2)nc(-c2ccnc(C(N)=O)c2)nc1OC` [Example 42, 4-[4-(5-isopropyl-pyridine-2-sulfonylamino)-6-methoxy-5-(2-methoxy-phenoxy)-pyrimidin-2-yl]-pyridine-2-carboxylic acid amide], at isolated rat aorta rings, the Kb was at most 6.31 nM. Besides, in series [2], the AUC is at least 10000 ng·h/mL and the Cmax is at least 1500 ng/mL.
With `COc1ccccc1Oc1c(NS(=O)(=O)c2ccc(C)cn2)nc(-c2cccc(O)c2)nc1OC` [Example 1, 5-methyl-pyridine-2-sulfonic acid [2-(3-hydroxy-phenyl)-6-methoxy-5-(2-methoxy-phenoxy)-pyrimidin-4-yl]-amide], on isolated rat aorta rings, the Kb is at most 6.31 nM. For the same molecule, the IC50 in series [1] is at most 10 nM.
Take `COc1ccccc1Oc1c(NS(=O)(=O)c2ccc(C(C)C)cn2)nc(-c2ccnc(CNC(C)=O)c2)nc1OC` [Example 52, N-{4-[4-(5-isopropyl-pyridine-2-sulfonylamino)-6-methoxy-5-(2-methoxy-phenoxy)-pyrimidin-2-yl]-pyridin-2-ylmethyl}-acetamide]: the Kb on isolated rat aorta rings is at most 6.31 nM. In series [2], the AUC is at least 10000 ng·h/mL and the Cmax is at least 1500 ng/mL.
For `COc1ccccc1Oc1c(NS(=O)(=O)c2ccc(C)cn2)nc(-c2cccc(OCCO)c2)nc1OC` [Example 7, 5-methyl-pyridine-2-sulfonic acid [2-[3-(2-hydroxy-ethoxy)-phenyl]-6-methoxy-5-(2-methoxy-phenoxy)-pyrimidin-4-yl]-amide], the Kb at isolated rat aorta rings was at most 6.31 nM. In series [2], the AUC was at least 10000 ng·h/mL and the Cmax was at least 1500 ng/mL. Moreover, the IC50 in series [1] is at most 10 nM.
As for `COc1ccccc1Oc1c(NS(=O)(=O)c2ccc(C)cn2)nc(-c2ccnc(-c3noc(C)n3)c2)nc1OC` [Example 35, 5-methyl-pyridine-2-sulfonic acid {6-methoxy-5-(2-methoxy-phenoxy)-2-[2-(5-methyl-[1,2,4]oxadiazol-3-yl)-pyridin-4-yl]-pyrimidin-4-yl}-amide], the Kb at isolated rat aorta rings was at most 6.31 nM. Besides, in series [2], the AUC is at least 10000 ng·h/mL and the Cmax is at least 1500 ng/mL.
For `COc1ccccc1Oc1c(NS(=O)(=O)c2ccc(C(C)C)cn2)nc(-c2ccnc(C(=N)NO)c2)nc1OC` [Example 55, N-hydroxy-4-[4-(5-isopropyl-pyridine-2-sulfonylamino)-6-methoxy-5-(2-methoxy-phenoxy)-pyrimidin-2-yl]-pyridine-2-carboxamidine], at isolated rat aorta rings, the Kb is at most 6.31 nM. The IC50 in series [1] is at most 10 nM.
For `COc1ccccc1Oc1c(NS(=O)(=O)c2ccc(C)cn2)nc(-c2ccnc(C(=O)O)c2)nc1OC` [Example 21, 4-[4-methoxy-5-(2-methoxy-phenoxy)-6-(5-methyl-pyridine-2-sulfonylamino)-pyrimidin-2-yl]-pyridine-2-carboxylic acid] the same measures were at most 6.31 nM and at most 10 nM.

Source of the values: patent US6242601A, “Heterocyclic sulfamides” (Hoffman-La Roche Inc., priority 1999, dated 2001).
